Measured values published in patent publication US20210269440A1 (BETTA PHARMACEUTICALS CO., LTD, priority 2018, published 2021).

Biological target: T1, PD-1/PD-L1 protein/protein interaction (Homo sapiens, UniProt Q9NZQ7)
T1 construct: Recombinant human PD-L1 protein (19-238) with a His-tag at the C-terminus; purchased AcroBiosystems PD1-H5229 (PD-L1); PD1-H5257 (PD-1)
Experiment: PD-1/PD-L1 homogenous time-resolved fluorescence (HTRF) binding assay
Description: Resolved Fluorescence (HTRF) Binding Assay
The assays were conducted in a standard black 384-well polystyrene plate with a final volume of […]. Inhibitors were first serially diluted in DMSO and then added to the plate wells before the addition of other reaction components. The final concentration of DMSO in the assay was 1%. The assays were carried out at 25° C. in the PBS buffer (pH 7.4) with 0.05% Tween-20 and 0.1% BSA. […] Plates were centrifuged and proteins were preincubated with inhibitors for 40 min. The incubation was followed by the addition of 10 μL of HTRF detection buffer supplemented with Europium cryptate-labeled anti-human IgG (PerkinElmer-AD0212) specific for Fc and anti-His antibody conjugated to SureLight®—Allophycocyanin (APC, PerkinElmer-AD0059H). After centrifugation, the plate was incubated at 25° C. for 60 min. […] Final concentrations in the assay were […] PD1, 10 nM PD-L1, 1 nM europium anti-human IgG and 20 nM anti-His-Allophycocyanin. IC50 determination was performed by fitting the curve of percent control activity versus the log of the inhibitor concentration using the GraphPad Prism 5.0 software.

T1 sequence (Q9NZQ7 19-238): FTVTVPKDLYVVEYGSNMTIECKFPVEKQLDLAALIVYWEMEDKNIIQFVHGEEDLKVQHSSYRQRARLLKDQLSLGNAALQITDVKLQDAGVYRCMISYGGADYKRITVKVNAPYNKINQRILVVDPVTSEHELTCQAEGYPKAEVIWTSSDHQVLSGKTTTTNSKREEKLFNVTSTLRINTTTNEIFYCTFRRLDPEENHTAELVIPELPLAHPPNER

Q: Which IC50 does the source give for `Cc1c(NC(=O)CCN2CCOCC2)cccc1-c1cccc(Nc2nccc3cc(CN4CCCCC4C(=O)O)cnc23)c1C` (stereo not drawn) [Compound 49, 1-((8-((2,2′-dimethyl-3′-(3-morpholinopropanamido)-[1,1′-biphenyl]-3-yl)amino)-1,7-naphthyridin-3-yl)methyl)piperidine-2-carboxylic acid] here?
A: 2 to 10 nM

Q: With `Cc1c(Nc2nccc3cc(CN4CCCCC4C(=O)O)cnc23)cccc1-c1cccc(N(C)C(=O)CCN2CCOCC2)c1C` (stereo not drawn) [Compound 50, 1-((8-((2,2′-dimethyl-3′-(N-methyl-3-morpholinopropanamido)-[1,1′-biphenyl]-3-yl)amino)-1,7-naphthyridin-3-yl)methyl)piperidine-2-carboxylic acid] as the molecule, how does the IC50 read?
A: > 150 nM

Q: `Cc1c(NC(=O)NCCNCCO)cccc1-c1cccc(Nc2nccc3cc(CN4CCCCC4C(=O)O)cnc23)c1C` (stereo not drawn) [Compound 51, 1-((8-((3′-(3-(2-((2-hydroxyethyl)amino)ethyl)ureido)-2,2′-dimethyl-[1,1′-biphenyl]-3-yl)amino)-1,7-naphthyridin-3-yl)methyl)piperidine-2-carboxylic acid] was tested. Which IC50 did it give?
A: > 150 nM

Q: With `Cc1c(Nc2nccc3cc(CN4CCCCC4C(=O)O)cnc23)cccc1-c1cccc(N(C)CCCN2CCOCC2)c1C` (stereo not drawn) [Compound 52, 1-((8-((2,2′-dimethyl-3′-(methyl(3-morpholinopropyl)amino)-[1,1′-biphenyl]-3-yl)amino)-1,7-naphthyridin-3-yl)methyl)piperidine-2-carboxylic acid] as the molecule, how does the IC50 read?
A: > 150 nM

Q: `Cc1c(NC(=O)NCCN2CCOCC2)cccc1-c1cccc(Nc2nccc3cc(CN4CCCCC4C(=O)O)cnc23)c1C` (stereo not drawn) [Compound 53, 1-((8-((2,2′-dimethyl-3′-(3-(2-morpholinoethyl)ureido)-[1,1′-biphenyl]-3-yl)amino)-1,7-naphthyridin-3-yl)methyl)piperidine-2-carboxylic acid] was tested. Which IC50 did it give?
A: > 150 nM

Q: Which IC50 does the source give for `Cc1c(Nc2nccc3cc(CN4CCCCC4C(=O)O)cnc23)cccc1-c1cccc(OCC2(CN3CCOCC3)CC2)c1C` (stereo not drawn) [Compound 54, 1-((8-((2,2′-dimethyl-3′-((1-(morpholinomethyl)cyclopropyl)methoxy)-[1,1′-biphenyl]-3-yl)amino)-1,7-naphthyridin-3-yl)methyl)piperidine-2-carboxylic acid] here?
A: 2 to 10 nM

Q: How did the IC50 turn out when `Cc1c(Nc2nccc3cc(CN4CCCCC4C(=O)O)cnc23)cccc1-c1cccc(OC(C)CCN2CCOCC2)c1C` (stereo not drawn) [Compound 55, 1-((8-((2,2′-dimethyl-3′-((4-morpholinobutan-2-yl)oxy)-[1,1′-biphenyl]-3-yl)amino)-1,7-naphthyridin-3-yl)methyl)piperidine-2-carboxylic acid] was run?
A: 2 to 10 nM

Q: For `Cc1c(Nc2nccc3cc(CN4CCCCC4C(=O)O)cnc23)cccc1-c1cccc2c1CCC2OCCN1CCOCC1` (stereo not drawn) [Compound 56, 1-((8-((2-methyl-3-(1-(2-morpholinoethoxy)-2,3-dihydro-1H-inden-4-yl)phenyl)amino)-1,7-naphthyridin-3-yl)methyl)piperidine-2-carboxylic acid], which IC50 is on record?
A: > 150 nM

Q: `Cc1c(/C=C/CCN2CCOCC2)cccc1-c1cccc(Nc2nccc3cc(CN4CCCCC4C(=O)O)cnc23)c1C` (stereo not drawn) [Compound 57, (E)-1-((8-((2,2′-dimethyl-3′-(4-morpholinobut-1-en-1-yl)-[1,1′-biphenyl]-3-yl)amino)-1,7-naphthyridin-3-yl)methyl)piperidine-2-carboxylic acid] was tested. Which IC50 did it give?
A: 2 to 10 nM

Q: With `Cc1c(CCCCN2CCOCC2)cccc1-c1cccc(Nc2nccc3cc(CN4CCCCC4C(=O)O)cnc23)c1C` (stereo not drawn) [Compound 58, 1-((8-((2,2′-dimethyl-3′-(4-morpholinobutyl)-[1,1′-biphenyl]-3-yl)amino)-1,7-naphthyridin-3-yl)methyl)piperidine-2-carboxylic acid] as the molecule, how does the IC50 read?
A: 2 to 10 nM

Q: With `COc1ccc(-c2cccc(Nc3nccc4cc(CN5CCCCC5C(=O)O)cnc34)c2C)cc1OCCCN1CCOCC1` (stereo not drawn) [Compound 59, 1-((8-((4′-methoxy-2-methyl-3′-(3-morpholinopropoxy)-[1,1′-biphenyl]-3-yl)amino)-1,7-naphthyridin-3-yl)methyl)piperidine-2-carboxylic acid] as the molecule, how does the IC50 read?
A: 2 to 10 nM

Q: How did the IC50 turn out when `Cc1c(Nc2nccc3cc(CN4CCCCC4C(=O)O)cnc23)cccc1-c1ccc(C(F)(F)F)c(OCCCN2CCOCC2)c1` (stereo not drawn) [Compound 60, 1-((8-((2-methyl-3′-(3-morpholinopropoxy)-4′-(trifluoromethyl)-[1,1′-biphenyl]-3-yl)amino)-1,7-naphthyridin-3-yl)methyl)piperidine-2-carboxylic acid] was run?
A: > 150 nM
